In patent US11613552B2, “Pharmaceutical agents, compositions, and methods relating thereto” (Alltech, Inc., priority 2017, dated 2023):
“Also recorded” adds a separate entry of the source.

How the values were obtained:
HepG2 cells = test: Glucose production assay in HepG2 cells; format: cell-based, human; conditions: for reduction in glucose production: serum-free; for reduction in glucose production / reduction in glucose production compared with 100 nM insulin / CDE: 48 hr
Procedure: Equal numbers of Human HepG2 or rat H4IIE cells (1-1.5×10^5 cells/well) were seeded on 96 well plates in 10% FBS-containing media for 24 hr. Cells were then washed twice with PBS, and treated with various concentrations of compounds, metformin or insulin in 100 μl of glucose production media (glucose-free, phenol red-free DMEM media supplemented with 20 mM sodium lactate, 2 mM sodium pyruvate and 5 mM HEPES) at 37° C. for 24 hr (H4IIE cells only) or 48 hr (HepG2 cell only). Cells were also incubated with 0.24% DMSO (the maximal volume of DMSO solvent used in the experiments).
After the above treatments, 50 μl of culture media were collected, and subjected to glucose analysis using Molecular Probes Amplex Red glucose assay kit (Cat #A22189) according to the manufacturer's protocol. Cell numbers or viability in the culture plate after the above compound treatments were determined using Promega's CellTiter96® AQueous One Solution Cell Proliferation Assay kits, according to the manufacturer's protocol and instructions. In brief, after removing 50 μl of culture media for glucose assay, cells were incubated with AQueous One solution (25 μl stock solution and 50 μl prewarmed PBS/per well) at 37° C. for 1 hour, and the absorbance of OD490 nm in each sample was determined by the Bio-Tek microplate reader. Cell viability in culture wells were determined by the subtraction of OD490 nm in cultured cells with the OD490 nm in plain culture media (without seeding of cells). Glucose production in the culture cells were obtained by normalizing the glucose concentration in culture media by cell viability in each well. At least 3 samples per each treatment were examined for the above analysis. Data are presented as Mean±SEM of those samples. Experiments were repeated at least twice.
The half maximal inhibitory concentration (IC50 values) of Compound #43 or metformin for the inhibition of glucose production were determined using the ED50 Plus v1.0 online software.

AML-12 cells = test: Glucose uptake assay in AML-12 cells; format: cell-based, mouse
Procedure: Equal numbers of amplified AML-12 cells were seeded on 96 well plates (1.5×10^5/well) and cultured in 10% FBS but ITS/Dex-free DMEM/F12 media overnight. Then these cells were washed twice with PBS (to remove any potential residual sera), and serum-starved in plain DMEM/F12 media overnight. These serum-starved AML-12 cells were treated without (basal), with insulin (10 and 100 nM) or Compound #43 (150, 300 and 600 ppb) in glucose/phenol red-free DMEM media at 37° C. for 1.5 hr. After treatment, media was removed and cells were washed once with PBS and incubated with 1 mM 2-deoxyglucose (2DG) at room temperature for 30 min. The 2DG-treated cells were then subjected to glucose uptake measurement using Promega's Glucose Uptake-Glo Assay kit, according to the manufacturer's protocol. Luminescent signals were recorded using a Bio-Tek luminometer.

Insrβ/Pdk1/Akt/AS160 = test: Western blot of Insrβ/Akt/AS160 phosphorylation in differentiated C2C12 cells; format: cell-based, mouse; conditions: for pInsrβ levels: 200 nM insulin or 600 ppb Compound #43, prolonged treatment 60 minutes
Procedure: To differentiate the C2C12 cells, equal number of these myoblast cells were firstly seeded on 12-well plates (60,000 cells/well) and cultured in 10% FBS DMEM media at 37° C. for 5 days. These cells were replenished daily with fresh 10% FBS DMEM media. At day 5 after the culture, C2C12 cells were differentiated using 0.5% horse serum (Sigma)-containing DMEM media (differentiation media) for 7 days with daily replacement of fresh differentiation media, similar to previous described (Misu et al, Cell Metabolism 12, 483-495, 2010). At day 7 after the differentiation, differentiated C2C12 cells were rinsed with PBS twice and incubated in serum-free DMEM media overnight. Then these serum-starved cells were treated without (basal) or with insulin (200 nM), Compound #43 (600 ppb), or both insulin and Compound #43 in serum-free DMEM media at 37° C. for 5 and 60 minutes.
After the above treatments, cultured HepG2 cells or differentiated C2C12 cells were rinsed twice with ice-cold PBS and lysed in ice-cold RIPA buffer containing complete proteinase and phosphatase inhibitors (Thermo-Fisher Scientific, Waltham, Mass.) on ice for 30 min. Cell lysates were collected using a cell scraper and transfer pipette, and then centrifuged at 12000×g for 30 min at 4° C. to remove the DNA pellet and obtain the protein extract. Protein levels in the supernatant of these cell lysates were determined using the Pierce Micro-BCA protein assay kit (Thermo Scientific-Piece Biotechnology, Rockford, Ill.) according to the manufacturer's protocol.
One hundred micrograms of skeletal muscle or liver tissue proteins, five micrograms of HepG2 cell protein extracts, or eight micrograms of differentiated C2C12 cell protein extracts were subjected to SDS-PAGE gel separation and then transferred to PVDF membranes, as described previously (Reddy et al. 2008 Science). Membranes were blocked in a phosphate-buffered saline (PBS) containing 5% (w/v) of bovine serum albumin (Sigma, St. Louis, Mo.) and incubated with specific primary antibodies followed by the incubation with HRP-conjugated anti-mouse or anti-rabbit secondary antibodies (1:5000 dilution, Cell Signaling Inc.). All primary antibodies were purchased from Cell Signaling Inc, except the antibodies against β-tubulin (LI-COR bioscience). Positive signals on the membrane blots were detected using the Amersham's enhanced chemiluminescence Western Blotting Prime Detection reagents (GE Healthcare Lifescience, Pittsburgh, Pa.). Images of these luminescence signals on the membrane blots were captured using the LI-COR Odyssey Fc Image system (Lincoln, Nebr.). The same membrane blot was stripped and re-blotted with another antibody as described in the GE WB ECL-prime-detection protocol (GE healthcare Lifescience, Pittsburgh, Pa.). Protein band densities in the Western blots were determined using the NIH ImageJ software and then normalized by β-tubulin or ACTB protein level in each sample. Data are presented as mean±SEM of 3-5 samples per group.

[1] = 200 nM insulin or 600 ppb Compound #43, 5 minutes
[2] = 200 nM insulin or 600 ppb Compound #43, 60 minutes

insulin: insulin purchased from Sigma, positive control
reduction in glucose production (HepG2 cells; 10 nM insulin): 20%
reduction in glucose production (HepG2 cells; 100 nM insulin): 30%
effect on glucose uptake (AML-12 cells; 10 nM insulin, 1.5 hr): did not enhance the glucose uptake
effect on glucose uptake (AML-12 cells; 100 nM insulin, 1.5 hr): significant increase of glucose uptake
pInsrβ at Y1146 (Insrβ/Pdk1/Akt/AS160; [1]): significant increase of pInsrβ at Y1146
phosphorylated Akt protein levels (Insrβ/Pdk1/Akt/AS160; [1]): significant increase of phosphorylated Akt
phosphorylated Akt protein levels (Insrβ/Pdk1/Akt/AS160; [2]): not observed
pInsrβ levels (Insrβ/Pdk1/Akt/AS160): decrease in pInsrβ levels
increase in phosphorylation of AS160 at S588 (Insrβ/Pdk1/Akt/AS160; 200 nM insulin, 5 min): about 2 fold
phosphorylated AS160 (Insrβ/Pdk1/Akt/AS160; 200 nM insulin, 60 minutes): no obvious increase in phosphorylated AS160

C[Se]C[C@H]1O[C@@H](n2cnc3c(N)ncnc32)C(OC(C)=O)C1OC(C)=O (stereo partly shown) [Compound #43, Adenosine, 5′-Se-methyl-5′-selino-, 2′,3′-diacetate]
reduction in glucose production compared with 100 nM insulin / CDE (HepG2 cells; 3.8 μM): as potent as the CDE combination product
reduction in glucose production compared with 100 nM insulin / CDE (HepG2 cells; 3.8 μM, listed as compound #43): comparable to that achieved when insulin (100 nM) was used
reduction in glucose production compared with 100 nM insulin / CDE (HepG2 cells; 7.6 μM or higher (7.6, 15.2 and 30.4 μM)): much more potent than 100 nM insulin; also recorded: more potent than CDE
relative potency among tested compounds in inhibiting glucose production (HepG2 cells; FIG. 1 left-hand panel): the most potent
IC50 (HepG2 cells; Homo sapiens, HepG2, 48 hr, read-out: IC50 (inhibition of glucose production)): 15.5 µM
effect on glucose production in HepG2 cells (HepG2 cells; tested doses, serum-free glucose production media, 48 hr (FIG. 1)): decrease in glucose levels in the culture media; also recorded: inhibited glucose production
effect on glucose uptake (AML-12 cells; 150, 300 and 600 ppb, 1.5 hr (FIG. 17)): significant increase of glucose uptake
extent of increased glucose uptake (AML-12 cells; 600 ppb, 1.5 hr): comparable to 100 nM insulin
time to stimulate glucose uptake (AML-12 cells; serum-free): less than 1.5 hr
pInsrβ at Y1146 (Insrβ/Pdk1/Akt/AS160; [1]): significant increase of pInsrβ at Y1146
phosphorylated Akt protein levels (Insrβ/Pdk1/Akt/AS160; [1]): did not cause a significant increase of phosphorylated Akt protein levels
phosphorylated Akt protein levels (Insrβ/Pdk1/Akt/AS160; [2]): robust increased of phosphorylated Akt proteins levels
pInsrβ levels (Insrβ/Pdk1/Akt/AS160): decrease in pInsrβ levels
phosphorylated AS160 and total AS160 protein levels (Insrβ/Pdk1/Akt/AS160; 600 ppb alone, 5 minutes): did not affect the protein levels of phosphorylated AS160 and total AS160
increase in phosphorylated AS160 at S588 (Insrβ/Pdk1/Akt/AS160; 600 ppb, 60 minutes): about 6 fold
pInsrβ protein levels (Insrβ/Pdk1/Akt/AS160; co-treatment insulin 200 nM and Compound #43 600 ppb, 5 minutes): tended to increase pInsrβ protein levels
phosphorylated AS160 protein levels (Insrβ/Pdk1/Akt/AS160; co-treatment insulin and Compound #43, 5 and 60 minutes): significant increase of phosphorylated AS160 protein levels
pAkt protein levels (Insrβ/Pdk1/Akt/AS160; co-treatment insulin and Compound #43, both tested time points): significant increase of pAkt protein levels
